Source: paper PMC5010932 (Molecular cancer therapeutics, 2016)

Biological target: NAMPT (Homo sapiens, UniProt P43490)
Assay: cell-free coupled-enzyme colorimetric assay with recombinant NAMPT
Type: biochemical

Chain of NAMPT (P43490 whole entry): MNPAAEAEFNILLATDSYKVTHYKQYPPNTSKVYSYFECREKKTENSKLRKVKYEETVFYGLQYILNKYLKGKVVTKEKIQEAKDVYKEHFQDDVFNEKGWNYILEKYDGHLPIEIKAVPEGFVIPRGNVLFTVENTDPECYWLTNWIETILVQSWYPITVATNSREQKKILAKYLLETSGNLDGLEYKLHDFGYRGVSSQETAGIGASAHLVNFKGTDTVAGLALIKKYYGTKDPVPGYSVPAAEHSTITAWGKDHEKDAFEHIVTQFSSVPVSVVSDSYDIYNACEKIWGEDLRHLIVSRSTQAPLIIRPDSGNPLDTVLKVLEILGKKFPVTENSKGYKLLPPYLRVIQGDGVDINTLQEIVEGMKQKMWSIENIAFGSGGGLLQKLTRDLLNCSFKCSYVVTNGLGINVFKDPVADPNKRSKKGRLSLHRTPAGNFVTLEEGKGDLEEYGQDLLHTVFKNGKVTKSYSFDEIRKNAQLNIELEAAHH

SMILES: Nc1ccc(/C=C/C(=O)NCc2cc3cc(-c4ccc(C(=O)N5CCC(F)(F)CC5)cc4)cc(-c4ccc(F)cc4)c3o2)cn1 [KPT-9274]
- IC50: ~120 nM
